In PubChem BioAssay AID1963423 (Molecular Pharmacology Branch, DTP, NCI, 2024):

System: 439559-082-T-J2-PDC complex spheroid growth
Assay: Anticancer human tumor 439559-082-T-J2-PDC patient-derived colon adenocarcinoma cell line growth inhibition [Asc]
Settings: for IC50: curve of first compound; for viability, T/C: stronger effect = lower value
In short: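 Spheroid model: tumor line + HUVEC + hMSC. Single agents and combinations; top conc. at/near clinical Cmax (10 microM if undetermined), half-log dilutions. DMSO stocks at 800-fold test concentration.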

[1] = second compound 0.1 µM, first compound 0.0316 µM
[2] = second compound 0.1 µM, first compound 0.1 µM
[3] = second compound 0.1 µM, first compound 0.316 µM
[4] = second compound 0.1 µM, first compound 1 µM
[5] = second compound 0.316 µM, first compound 0.0316 µM
[6] = second compound 0.316 µM, first compound 0.1 µM
[7] = second compound 0.316 µM, first compound 0.316 µM
[8] = second compound 0.316 µM, first compound 1 µM
[9] = second compound 1 µM, first compound 0.0316 µM
[10] = second compound 1 µM, first compound 0.1 µM
[11] = second compound 1 µM, first compound 0.316 µM
[12] = second compound 1 µM, first compound 1 µM
[13] = second compound 3.16 µM, first compound 0.0316 µM
[14] = second compound 3.16 µM, first compound 0.1 µM
[15] = second compound 3.16 µM, first compound 0.316 µM
[16] = second compound 3.16 µM, first compound 1 µM
[17] = second compound 10 µM, first compound 0.0316 µM
[18] = second compound 10 µM, first compound 0.1 µM
[19] = second compound 10 µM, first compound 0.316 µM
[20] = second compound 10 µM, first compound 1 µM
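Further: spheroids exposed to agents for 7 days starting day 3 after seeding.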
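Wherever viability, T/C is given: percent of DMSO vehicle control viability with 100% = vehicle.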

Compound	IC50 (second compound 0.1 µM)	IC50 (second compound 0.316 µM)	IC50 (second compound 1 µM)	IC50 (second compound 3.16 µM)	IC50 (second compound 10 µM)	viability, T/C [1]	viability, T/C [2]	viability, T/C [3]	viability, T/C [4]	viability, T/C [5]	viability, T/C [6]	viability, T/C [7]	viability, T/C [8]	viability, T/C [9]	viability, T/C [10]	viability, T/C [11]	viability, T/C [12]	viability, T/C [13]	viability, T/C [14]	viability, T/C [15]	other results
C=CC(=O)N1CCN(c2nc(=O)n(-c3c(C)ccnc3C(C)C)c3nc(-c4c(O)cccc4F)c(F)cc23)C(C)C1 (stereo not given) + Cc1c(S(C)(=O)=O)c(-c2cc(F)cc(N3CCN(c4ccc(NS(=O)(=O)c5ccc(NC(CCN6CCC(C(=O)OCCCP(=O)(O)O)CC6)CSc6ccccc6)c(S(=O)(=O)C(F)(F)F)c5)cc4)CC3)c2)c(-c2ccc(Cl)cc2)n1C(C)C	> 10000 nM	> 10000 nM	> 10000 nM	> 10000 nM	> 10000 nM	97.6%	112%	99.2%	97.4%	93.5%	107%	108%	98.2%	99.1%	102%	105%	88.9%	99.1%	101%	103%	viability, T/C (second compound 0.1 µM, first compound 3.16 µM): 109%; viability, T/C (second compound 0.1 µM, first compound 10 µM): 99.8%; viability, T/C (second compound 0.316 µM, first compound 3.16 µM): 96.6%; viability, T/C (second compound 0.316 µM, first compound 10 µM): 88.3%; viability, T/C (second compound 1 µM, first compound 3.16 µM): 89.8%; viability, T/C (second compound 1 µM, first compound 10 µM): 91.6%; viability, T/C [16]: 89.1%; viability, T/C (second compound 3.16 µM, first compound 3.16 µM): 88.1%; viability, T/C (second compound 3.16 µM, first compound 10 µM): 94.6%; viability, T/C [17]: 78%; viability, T/C [18]: 80%; viability, T/C [19]: 80.5%; viability, T/C [20]: 73.8%; viability, T/C (second compound 10 µM, first compound 3.16 µM): 87.6%; viability, T/C (second compound 10 µM, first compound 10 µM): 81.3%
COc1c(OCCCN2CCOCC2)ccc2c3n(c(=NC(=O)c4cnc(N)nc4)nc12)CCN3 + Cc1c(S(C)(=O)=O)c(-c2cc(F)cc(N3CCN(c4ccc(NS(=O)(=O)c5ccc(NC(CCN6CCC(C(=O)OCCCP(=O)(O)O)CC6)CSc6ccccc6)c(S(=O)(=O)C(F)(F)F)c5)cc4)CC3)c2)c(-c2ccc(Cl)cc2)n1C(C)C	> 1000 nM	> 1000 nM	> 1000 nM	312 nM	101 nM	85.8%	63.8%	67.1%	55%	90.8%	63.4%	62%	54.1%	82.6%	64.6%	59%	49.7%	79.9%	59.5%	50.8%	viability, T/C (second compound 0.1 µM, first compound 0.00316 µM): 97.8%; viability, T/C (second compound 0.1 µM, first compound 0.01 µM): 98.6%; viability, T/C (second compound 0.316 µM, first compound 0.00316 µM): 95.9%; viability, T/C (second compound 0.316 µM, first compound 0.01 µM): 97.9%; viability, T/C (second compound 1 µM, first compound 0.00316 µM): 90.2%; viability, T/C (second compound 1 µM, first compound 0.01 µM): 89.7%; viability, T/C (second compound 3.16 µM, first compound 0.00316 µM): 85.6%; viability, T/C (second compound 3.16 µM, first compound 0.01 µM): 84.8%; viability, T/C [16]: 48%; viability, T/C (second compound 10 µM, first compound 0.00316 µM): 69%; viability, T/C (second compound 10 µM, first compound 0.01 µM): 84.7%; viability, T/C [17]: 72%; viability, T/C [18]: 50.4%; viability, T/C [19]: 36.9%; viability, T/C [20]: 37.2%
